Laboratory results: paper PMC8552062, “Contributions of UDP-Glucuronosyltransferases to Human Hepatic and Intestinal Metabolism of Ticagrelor and Inhibition of UGTs and Cytochrome P450 Enzymes by Ticagrelor and its Glucuronidated Metabolite” (Frontiers in Pharmacology, 2021)

How the values were obtained:
UGT1A4 = biological target: T1, UGT1A4 (Homo sapiens, UniProt P22310); assay: UGT1A4 inhibition in HLM (trifluoperazine N-glucuronidation); format: in vitro ADME; parameters: tissue XenoTech LLC; host or cells: pooled human liver microsomes; conditions: for inhibitory effect on UGT1A4: HLM, 1, 10 and 100 μM; for IC50: UGT1A4, trifluoperazine N-glucuronide formation in HLM
T1 sequence (P22310 29-534): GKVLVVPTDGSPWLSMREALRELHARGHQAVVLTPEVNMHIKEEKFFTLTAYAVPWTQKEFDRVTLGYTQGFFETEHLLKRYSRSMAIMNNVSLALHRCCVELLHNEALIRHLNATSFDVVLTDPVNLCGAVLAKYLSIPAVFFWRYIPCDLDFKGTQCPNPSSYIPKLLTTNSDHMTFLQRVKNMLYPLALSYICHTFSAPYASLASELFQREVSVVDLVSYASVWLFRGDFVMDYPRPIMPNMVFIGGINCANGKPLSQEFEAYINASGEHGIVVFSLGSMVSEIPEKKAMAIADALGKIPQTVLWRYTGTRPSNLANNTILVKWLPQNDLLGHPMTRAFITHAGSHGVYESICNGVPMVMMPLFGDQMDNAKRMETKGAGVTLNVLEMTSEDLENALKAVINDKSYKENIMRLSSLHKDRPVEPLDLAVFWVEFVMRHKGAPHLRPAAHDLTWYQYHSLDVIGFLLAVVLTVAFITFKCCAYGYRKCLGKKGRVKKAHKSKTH
Experimental: (§1) To assess drug-drug interactions (DDIs) potential caused by ticagrelor and ticagrelor-O-Glu through the inhibition of the major human UGTs enzymes, selective UGT probe substrates were co-incubated with ticagrelor or ticagrelor-O-Glu in HLM. The formation of metabolites, SN-38 glucuronide, chenodeoxycholic acid 24-acyl-β-D-glucuronide, trifluoperazine N-glucuronide, N-Acetyl serotonin glucuronide, mycophenolic acid glucuronide and 3′-azide-3′-deoxythymidine β-D-glucuronide, which could reflect the enzyme activities of UGT1A1, UGT1A3, UGT1A4, UGT1A6, UGT1A9 and UGT2B7, respectively, were quantified using LC-MS/MS. Three different concentrations of ticagrelor or ticagrelor-O-Glu (1, 10 and 100 μM) were added to the incubation system in the presence of selective UGT probe substrates (SN-38, chenodeoxycholic acid, trifluoperazine, N-Acetyl serotonin, mycophenolic acid and 3′-azide-3′-deoxythymidine), respectively. The assays were performed as described above. The control was treated with a vehicle solvent only. A triple determination was performed.
(§2) The percent inhibition relative to the control was calculated to indicate the UGTs or CYPs inhibition. For inhibition exceeding 50% of the control activity, nonlinear regression analysis was used to estimate the IC50 values using the GraphPad Prism 6 (GraphPad Software Inc., CA, United States).

recombinant human UGT2B4 = biological target: T2, recombinant human UGT2B4 (Homo sapiens, UniProt P06133); assay: Ticagrelor glucuronidation screen, recombinant human UGT2B4; format: in vitro ADME; conditions: 10 μM ticagrelor
T2 construct: purchased BD Gentest; host or cells: baculovirus-infected insect cells
T2 sequence (P06133 24-528): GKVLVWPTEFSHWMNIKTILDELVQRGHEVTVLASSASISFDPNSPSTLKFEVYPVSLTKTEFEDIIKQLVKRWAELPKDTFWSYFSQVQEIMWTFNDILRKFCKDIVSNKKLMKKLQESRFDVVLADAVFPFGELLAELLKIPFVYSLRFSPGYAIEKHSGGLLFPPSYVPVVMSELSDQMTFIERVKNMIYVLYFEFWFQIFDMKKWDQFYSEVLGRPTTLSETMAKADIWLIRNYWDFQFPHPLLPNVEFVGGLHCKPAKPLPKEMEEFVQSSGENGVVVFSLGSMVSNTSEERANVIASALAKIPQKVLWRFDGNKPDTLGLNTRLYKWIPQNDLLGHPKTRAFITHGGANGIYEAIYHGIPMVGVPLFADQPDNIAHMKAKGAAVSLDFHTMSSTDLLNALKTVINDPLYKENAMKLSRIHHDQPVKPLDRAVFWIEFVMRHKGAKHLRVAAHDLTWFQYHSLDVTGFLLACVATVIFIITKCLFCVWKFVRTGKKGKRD
Experimental: (§3) Ticagrelor glucuronidation was investigated in an in vitro incubation system by using HLM, HIM, and recombinant human UGTs. The incubation system consisted of enzyme sources (HLM, HIM, or human recombinant UGTs), various concentrations of ticagrelor (dissolved in 50% methanol, 1% v/v, 1, 2, 5, 10, 20, 50, 100, 200, 500 μM of final concentration), alamethicin (50 μg/mg protein), 5 mM MgCl2, 100 mM tris-HCL buffer (pH 7.4), and 5 mM UDPGA in a total volume of 100 μl. Alamethicin is a pore-forming polypeptide used to activate UGTs in HLM and HIM ([Fisher et al., 2000]). Preliminary studies were conducted to determine the optimal protein concentrations and incubation times. Linear conditions of ticagrelor-O-Glu formation from ticagrelor, i.e., HLM, 0.2 mg of protein/ml and 60 min, HIM, 0.2 mg of protein/ml and 60 min, and recombinant human UGTs, 0.2 mg of protein/ml and 60 min were selected. The incubation mixture without UDPGA was placed on ice for 15 min to activate UGT by alamethicin. After pre-incubation for 5 min at 37°C, the reactions were started by the addition of UDPGA. After another 60 min of incubation at 37°C, the reaction was terminated by adding 100 μl of acetonitrile containing internal standard (diazepam). The mixture vortexed for 2 min and then centrifuged at 14,000 rpm for 10 min at 4°C. […]

UGT1A3 = biological target: T3, UGT1A3 (Homo sapiens, UniProt P35503); assay: UGT1A3 inhibition in HLM (chenodeoxycholic acid glucuronidation); format: in vitro ADME; parameters: tissue XenoTech LLC; host or cells: pooled human liver microsomes; conditions: for IC50: UGT1A3, chenodeoxycholic acid 24-acyl-β-D-glucuronide formation in HLM
T3 sequence (P35503 29-534): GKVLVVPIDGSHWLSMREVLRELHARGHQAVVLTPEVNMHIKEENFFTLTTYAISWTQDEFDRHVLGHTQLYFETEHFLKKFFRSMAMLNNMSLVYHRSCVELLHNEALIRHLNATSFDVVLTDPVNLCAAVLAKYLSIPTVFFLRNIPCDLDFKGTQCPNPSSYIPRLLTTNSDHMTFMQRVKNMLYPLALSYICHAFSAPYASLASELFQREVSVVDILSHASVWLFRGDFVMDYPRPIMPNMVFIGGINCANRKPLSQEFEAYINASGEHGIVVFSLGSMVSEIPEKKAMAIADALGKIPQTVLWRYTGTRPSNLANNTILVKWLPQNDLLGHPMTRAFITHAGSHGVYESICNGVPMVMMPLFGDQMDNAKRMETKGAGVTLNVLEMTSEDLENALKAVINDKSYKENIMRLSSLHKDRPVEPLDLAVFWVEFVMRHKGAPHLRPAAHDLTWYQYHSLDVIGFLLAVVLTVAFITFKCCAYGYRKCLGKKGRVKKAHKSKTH
Experimental: as §1, §2

[1] = biological target: T4, recombinant human UGT1A10 (Homo sapiens, UniProt Q9HAW8); assay: Ticagrelor glucuronidation screen, recombinant human UGT1A10; format: in vitro ADME; conditions: 10 μM ticagrelor
T4 construct: purchased BD Gentest; host or cells: baculovirus-infected insect cells
T4 sequence (Q9HAW8 26-530): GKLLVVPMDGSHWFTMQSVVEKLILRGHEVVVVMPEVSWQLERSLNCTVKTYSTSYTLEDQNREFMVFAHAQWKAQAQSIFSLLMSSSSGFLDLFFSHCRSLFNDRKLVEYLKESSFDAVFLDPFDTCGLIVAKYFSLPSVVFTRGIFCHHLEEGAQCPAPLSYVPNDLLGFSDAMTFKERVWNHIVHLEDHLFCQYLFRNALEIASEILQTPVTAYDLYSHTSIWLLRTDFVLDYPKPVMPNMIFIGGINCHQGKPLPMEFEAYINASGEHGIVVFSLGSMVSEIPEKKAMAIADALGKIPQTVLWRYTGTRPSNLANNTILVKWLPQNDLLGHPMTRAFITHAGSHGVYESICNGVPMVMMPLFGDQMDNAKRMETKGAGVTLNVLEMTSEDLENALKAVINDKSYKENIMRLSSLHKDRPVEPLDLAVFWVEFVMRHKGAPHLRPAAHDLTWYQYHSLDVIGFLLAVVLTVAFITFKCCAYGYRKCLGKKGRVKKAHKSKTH
Experimental: as §3

[2] = parameters: method as in Husted et al., 2006; conditions: humans, 100 mg b.i.d.; ref Husted et al., 2006; cited from earlier work

Compound	inhibitory effect on UGT1A4 (UGT1A4)	IC50 (UGT1A4)	glucuronidation activity for ticagrelor (recombinant human UGT2B4)	IC50 (UGT1A3)	inhibition at 100 µM (UGT1A3; human, human liver microsomes (HLM), probe chenodeoxycholic acid, HLM, 100 μM test compound)	glucuronidation activity for ticagrelor [1]	steady-state maximal plasma concentration (Cmax) [2]	inhibitory effect on UGT1A3 (UGT1A3; HLM, concentration up to 100 μM)
CCCSc1nc(N[C@@H]2C[C@H]2c2ccc(F)c(F)c2)c2nnn([C@@H]3C[C@H](OCCO)[C@@H](O)[C@H]3O)c2n1 [Ticagrelor]	No significant inhibitory effect	> 100 µM	no glucuronidation activities	> 100 µM	24.5%	no glucuronidation activities	0.81 µg/mL	
CCCSc1nc(N[C@@H]2C[C@H]2c2ccc(F)c(F)c2)c2nnn([C@@H]3C[C@H](OCCO[C@@H]4O[C@H](C(=O)O)[C@@H](O)[C@H](O)[C@H]4O)[C@@H](O)[C@H]3O)c2n1 [Ticagrelor-O-Glu, ticagrelor-O-glucuronide]	no significant inhibitory effects	> 100 µM		> 100 µM				no significant inhibitory effects
